We go through two molecules from patent US8247220B2, “Optical indicator for detecting bacterial pathogens” (Kimberly-Clark Worldwide, Inc., priority 2008, dated 2012).

SMILES strings stand for the structures.

The nature of assay [1]: Bacterial cell-wall components on dye-coated substrate and titration with Reichardt's dye. Conditions: 5%, 1%, 0.2% (wt/wt) solutions (pure LPS 0.1%, 0.02%, 0.004%); both experimental set-ups.
Assay [2] deals with S. aureus. Description: Standard curve on dye-coated paper, Delta E against log CFU/mL. Conditions: paper coated with 80 mg/10 g acetonitrile, 100 μL aliquots, spectrophotometer CIELAB.
In assay [3] the test system is Lactobacillus. Description: Titration of microorganism spot with Reichardt's dye solution. Conditions: 10^7 CFU/ml, 100 μl; dye 160 mg in 10 g acetonitrile, 10 μl aliquots.
Assay [4] has as its system Streptococcus pyogenes (ATCC # 10782). The experiment in a line: Reichardt's dye-treated samples with upper respiratory pathogens. The note with it: 100 microliters. An excerpt:
(§1) It has been observed in prior experiments that gram positive bacteria elicit a stronger de-colorization response than other types of microorganisms.

For assay [5], the system named is Moraxella lacunata (ATCC # 17972). Described as above. Conditions: 100 microliters.
Text: as §1

For assay [6], the system named is Streptococcus pneumoniae (ATCC # 10015). The assay is described as above. The note with it: 100 microliters.
Text: as §1

Assay [7] relates to Haemophilus influenzae (ATCC # 49247). The description is as above. Conditions: 100 microliters.
Text: as §1

The subject of assay [8] is vegetative organism. Set-up: species or system Anthracis bacillus.
Assay [9] relates to gram-positive bacteria. The experiment in a line: Visible colour change of Reichardt's dye-coated absorbent substrate, serial dilutions of bacteria. The note with it: 100 μl aliquot on dye-coated substrate, colour change visible to the eye.
Assay [10] relates to Salmonella. The experiment in a line: Dye-coated absorbent substrate tested with Salmonella-containing liquid. The note with it: 100 microliter aliquots on dye-coated substrate. An excerpt:
Gibraltar Labs (Fairfield, N.J.) placed 100 microliter aliquots of the solutions onto the absorbent substrate.

Assay [11] deals with P. aeruginosa. Description: Titration of microorganism spot with Reichardt's dye solution. Conditions: 10^7 CFU/ml, 100 μl; dye 160 mg in 10 g acetonitrile, 10 μl aliquots.
Assay [12] deals with Influenza A (ATCC # VR-544). The experiment in a line: Reichardt's dye-treated samples with upper respiratory viruses. Conditions: compared with Salmonella bacterial control at a similar concentration.
In assay [13] the test system is Rhinovirus Type 42. Described as above. Conditions: compared with Salmonella bacterial control at a similar concentration.
Assay [14] deals with G. vaginalis. Description: Titration of microorganism spot with Reichardt's dye solution. The note with it: 10^7 CFU/ml, 100 μl; dye 160 mg in 10 g acetonitrile, 10 μl aliquots.
Assay [15] relates to autoclaved S. aureus. The experiment in a line: Autoclaved bacteria sprayed with Reichardt's dye indicator spray. The note with it: S. aureus 10^6 CFU/mL autoclaved; spray 160 mg in 10 g isopropanol. On the procedure: In order to verify that the bacterial cell wall plays a critical role in this reaction, a vial of S. aureus (10^6 CFU/mL) was autoclaved before testing with the indicator spray (160 mg Reichardt's Dye in 10 g of isopropanol). Autoclaving kills bacteria by essentially blowing the cell wall apart. The steam from the autoclave penetrates the bacteria and rips the membrane apart.

For assay [16], the system named is E. coli. The experiment in a line: Titration of microorganism spot with Reichardt's dye solution. The note with it: 10^7 CFU/ml, 100 μl; dye 160 mg in 10 g acetonitrile, 10 μl aliquots. An excerpt:
(§2) 10^7 CFU/ml of S. aureus.

Assay [17] concerns S. aureus. Described as above. Conditions: 10^7 CFU/ml, 100 μl; dye 160 mg in 10 g acetonitrile, 10 μl aliquots.
Text: as §2

Assay [18] relates to C. albicans. The assay is described as above. Conditions: 10^7 CFU/ml, 100 μl; dye 160 mg in 10 g acetonitrile, 10 μl aliquots.
The subject of assay [19] is A. niger. The assay is described as above. The note with it: 10^5 CFU/mL, 100 μl; dye 160 mg in 10 g acetonitrile, 10 μl aliquots.
In assay [20] the test system is S. aureus protoplasts. Description: Protoplasts on label coated with Reichardt's dye. Conditions: 100 μL aliquot, label coated with 80 mg/10 g acetonitrile, approximately 5 minutes. As for the experimental part:
An additional test to verify reaction with the cell wall was performed by creating protoplasts through enzymatic digestion of the bacterial cell wall. […] Louis, Mo.) suspended in TM buffer (0.05 M Tris-HCl, pH 7.4, 20 mM MgCl2) with 15% (w/v) of sucrose (Sigma-Aldrich, St. Louis, Mo.). The reaction was carried out for one hour at 30° C., after which the solution was centrifuged at 10,000×g, and rinsed twice with TM buffer containing 13% (w/v) sucrose according to methods detailed by Taku and Fan (The Journal of Biological Chemistry, 1979). The solution containing protoplasts was reacted (100 μL aliquot) with an Avery label coated with Reichardt's dye (80 mg/10 g acetonitrile). Untreated bacteria was diluted 10 fold in the TM/13% sucrose buffer (without lysozyme) and were placed on the label as a positive control.

Assay [21] concerns bacterial spores such as Anthracis bacillus.

In the case of `C[C@@H](O[C@H]1[C@H](O)[C@@H](CO)OC(O)[C@@H]1N)C(=O)O` (stereo partly drawn) [Muramic acid, muramic acid], the “de-colorization of Reichardt's dye by cell-wall component” value in assay [1] was “strongest reaction, resulting in a near instantaneous de-colorization of the dye”.

Turning to `[O-]c1c(-c2ccccc2)cc(-[n+]2c(-c3ccccc3)cc(-c3ccccc3)cc2-c2ccccc2)cc1-c1ccccc1` [Reichardt's dye, 4-(2,4,6-triphenylpyridinium-1-yl)-2,6-diphenylphenolate], in [2], the “responsiveness of the dye (Delta E)” value was “dose-dependent”. Also, the “Amount of Dye Required for Persistent Color” value in [3] stood at 110 µL; in assay [11], 80 µL; in [14] it was 90 µL; in [16], 90 µL; in assay [17] it was 90 µL; in assay [18] it was 70 µL. For the same molecule, in [19], the “Amount of Dye Required for Persistent Color” value worked out at 50 µL. In addition, the “de-colorization of dye-treated samples” value in [4], in [5], in assay [6] and in [7] was “de-colorized” throughout. Moreover, the “de-colorization of the dye” value in assay [8] is recorded as “de-colorization occurred”; in assay [10], “decolorized the dye”; in assay [12], “markedly less de-colorization”; in assay [13], “markedly less de-colorization”; in [15], “no de-colorization was observed”; in assay [20], “minimal de-colorization”. Also, the “lower limit for indication of gram-positive bacteria” value in [9] worked out at 100 CFU/ml. Moreover, the “sensitivity of the dye to bacterial spores” value in assay [21] is on record as “not sufficiently sensitive”.
